Converted amounts (≈) assume the structure as drawn.
How the values were obtained:
[1] = tested on: antisera generated to Immunogen I (hapten A-BTG); assay: competitive microtiter plate assay (ELISA) for salvinorin A and salvinorin B; assay type: binding, sheep
[2] = in vivo; cited from earlier work
[3] = Conjugate I, calibrator 0.16 ng/ml
[4] = Conjugate I, calibrator 0.31 ng/ml
[5] = Conjugate I, calibrator 0.63 ng/ml
[6] = Conjugate I, calibrator 1.25 ng/ml
[7] = Conjugate I, calibrator 2.50 ng/ml
[8] = Conjugate I, calibrator 5.00 ng/ml
[9] = Conjugate I, calibrator 10.00 ng/ml
[10] = Conjugate II, calibrator 0.16 ng/ml
[11] = Conjugate II, calibrator 0.31 ng/ml
[12] = Conjugate II, calibrator 0.63 ng/ml
[13] = Conjugate II, calibrator 1.25 ng/ml
[14] = Conjugate II, calibrator 2.50 ng/ml
[15] = Conjugate II, calibrator 5.00 ng/ml
[16] = Conjugate II, calibrator 10.00 ng/ml

SMILES	% CR (percentage cross-reactivity based on 100% specificity to salvinorin A) ([1]; Conjugate I) [%]	IC50 (standard concentration which produces 50% B/Bo) ([1]; Conjugate I) [ng/mL]	% B/B0 [1, 3] [%]	% B/B0 [1, 4] [%]	% B/B0 [1, 5] [%]	% B/B0 [1, 6] [%]	% B/B0 [1, 7] [%]	% B/B0 [1, 8] [%]	% B/B0 [1, 9] [%]	% CR (percentage cross-reactivity based on 100% specificity to salvinorin A) ([1]; Conjugate II) [%]	IC50 (standard concentration which produces 50% B/Bo) ([1]; Conjugate II) [ng/mL]	% B/B0 [1, 10] [%]	% B/B0 [1, 11] [%]	% B/B0 [1, 12] [%]	% B/B0 [1, 13] [%]	% B/B0 [1, 14] [%]	% B/B0 [1, 15] [%]	% B/B0 [1, 16] [%]	action of duration [2] [min]
COC(=O)[C@@H]1C[C@H](OC(C)=O)C(=O)[C@H]2[C@@]1(C)CC[C@H]1C(=O)O[C@H](c3ccoc3)C[C@]21C [Salvinorin A]	100	0.277 (≈ 0.641 nM)	62	48	36	26	18	13	9	100	0.331 (≈ 0.765 nM)	64	51	39	30	20	14	9	10 to 15
COC(=O)C1CC(O)C(=O)C2C1(C)CCC1C(=O)OC(c3ccoc3)CC12C (stereo not shown) [Salvinorin B]	9.52	2.909 (≈ 7.45 nM)	84	74	70	63	50	43	33	12.00	2.758 (≈ 7.06 nM)	85	78	71	61	51	43	33	–

— patent US9222949B2, “Salvinorin immunoassay” (priority 2009, dated 2015)
